Experimental data published in patent publication US20080261309A1, “IN VITRO MULTIPLICATION OF HOODIA PLANTS” (CONOPCO, INC., D/B/A/ UNILEVER, priority 2007, published 2008).
Several values for one entry are separate records, joined by “and”; a condition that tells them apart may be missing. Identical values can stand only once.

Experiments:
Hoodia explants [1] = assay: Effect of BAP and IAA concentrations and combinations on shoot multiplication; type: cell-based, Hoodia gordonii
Protocol: In all the multiplication and later rooting trials, the experiments were carried out in a randomised factorial design with at least four replicates per treatment. The student's t-test was used to determine significant difference between the phytohormone treatments. P values≦0.05 was considered significant.
This example tested the effect of different benzylaminopurine (BAP, cytokinin), indoleacetic acid (IAA, auxin) concentration and combinations on shoot multiplication.
The basal salt medium used for this experiment was M&S basal salt and vitamins. All the other components were the same as used for initiation medium in Example 1. […] Factorial experiments were designed to test the effect of these phytohormones on shoot multiplication.
Each treatment had four replicates. Results were obtained after two sub-cultures.

Hoodia explants [2] = assay: Effect of gibberellic acid concentrations on shoot elongation and proliferation; type: cell-based, Hoodia gordonii; details: for Number of new shoots: replicates 1-7
Protocol: This Example investigated the effect of various giberellic acid concentrations on shoot elongation and proliferation.
An average of four shoots per explant was observed when the GA3 concentration was increased from 2.89 μM to 5.78 μM with 17.74 μM of BAP and 5.71 μM of IAA. As the concentration increased, the shoot length was retarded but side shoots were formed.

H. gordonii shoot tips = assay: Sterilisation of shoot tips: clean plants free of visible bacteria or fungal growth; set-up: species or system Hoodia gordonii
Protocol: Example 1 investigated the effect of various sterilization protocols on the number of clean shoots and their ability to produce new shoots after sterilization.
A total of 211 shoot tips (5-6 cm) of fresh H. gordonii plant material were collected from cultivation sites.
The shoot tips were washed thoroughly for 3-5 minutes under running tap water and liquid detergent to remove any debris from the field. The spikes on some of the plants were carefully removed with a surgical blade before the sterilisation process. […] Each tub contained around 10 shoot tips placed in 300 ml of the sterilizing solution. The tubs were placed on a shaker at low speed 80 rpm for 5 minutes. After 5 minutes, the mercuric chloride was poured out and the plants were rinsed once in sterile distilled water. After rinsing with sterile distilled water, a second sterilisation process with 30% sodium hypochlorite solution was carried out. The tubs were placed on a shaker at a speed of 80 rpm for 30 or 40 minutes. A total of 188 shoots were sterilized for 30 minutes while […] shoots were sterilized for 40 minutes. After draining the sodium hypochlorite, a batch of the plants were rinsed in distilled sterile water before putting in the initiation medium white another batch was placed directly into the initiation medium without rinsing. Recording of the percentage clean plants was done two weeks after initiation. Clean plants were shoots that were free of visible bacteria or fungal growth.
After sterilisation, the shoot tips were cultured on Murashige and Skoog (M&S) basal salt medium with M&S vitamins supplemented with 30 g/l sucrose, 3 g/l gelrite, 25 mg/l cefotaxime. The phytohormones used for the initiation medium were 17.74 μM Benzylaminopurine (BAP) and 5.71 μM Indole acetic acid (IAA). The pH of all the media tested was adjusted to 5.8 with either 1M potassium hydroxide (KOH) or 1N hydrochloric acid (HCl) before autoclaving at 121° C. for 20 minutes. Each 250 ml bottle contained one shoot tip. All the cultures were incubated at 26±2° C. in a growth room with a 16/8 hour light/dark photoperiod (39-90 μE/m^2/s). New shoot growth normally started a week after sterilisation. After two weeks in culture, bottles that were visibly clean were counted.

Hoodia shoots = assay: Effect of sucrose concentration on new shoot formation; type: cell-based, Hoodia gordonii; details: lowering sucrose from 30 g/l to 20 g/l in the multiplication medium
From the text: Example 6 tested the effect of three sucrose concentrations 0, 20 and 30 g/l on new shoot formation. All the other supplements were the same as for the initiation medium in Example 1. M&S basal salt and vitamin was used as the basal medium.
The sucrose concentrations used for the multiplication experiments were 0, 20 and 30 g/l respectively. There was no multiplication on plants placed in the control (0 g/l) medium which had no sugar. The shoots were stunted and started to turn to yellow after three weeks in culture.

c1ccc(CNc2ncnc3[nH]cnc23)cc1 [BAP, benzylaminopurine]
Average shoots per explant (Hoodia explants [1]; BAP 17.74 μM with IAA 5.71 μM): 4
Callus growth (Hoodia explants [1]; BAP 17.74 μM with IAA 5.71 μM, compared to BAP 22.19 μM): less callus growth
Average side shoots per explant (Hoodia explants [1]; BAP 22.19 μM and IAA 5.71 μM): four
Auxiliary shoots production (Hoodia explants [1]; BAP concentrations higher than 44.38 μM): retarded

C=C1C[C@]23C[C@@]1(O)CC[C@H]2[C@@]12C=C[C@H](O)[C@@](C)(C(=O)O1)[C@H]2[C@@H]3C(=O)O [GA3, gibberellic acid]
Number of new shoots (Hoodia explants [2]; GA3 1.44 μM): 1 (3×) and 2 (2×) and 0 (2×)
Shoot elongation and multiplication (Hoodia explants [2]; GA3 2.89 μM and 5.77 μM): elongated and multiplied better
Number of new shoots (Hoodia explants [2]; GA3 2.89 μM): 3 (3×) and 2 (2×) and 4 (2×)
Increase in length of the initial explant (Hoodia explants [2]; GA3 5.77 μM): ~1 cm
Number of new shoots (Hoodia explants [2]; GA3 5.77 μM): 4 (2×) and 5 (2×) and 6 and 7 and 8
Average shoots per explant (Hoodia explants [2]; GA3 increased from 2.89 μM to 5.78 μM with 17.74 μM BAP and 5.71 μM IAA): four

OCl [sodium hypochlorite]
Appearance of shoot tips after sterilisation (H. gordonii shoot tips; 30 minute treatment): still green
Number of clean plants (H. gordonii shoot tips; 30 minutes of sterilisation, out of 188 plants): 170 plants out of 188
Appearance of shoot tips after sterilisation (H. gordonii shoot tips; 40 minute treatment): heavily bleached on the external tissue
Number of clean plants (H. gordonii shoot tips; 40 minutes of sterilisation, out of 44 total): 41 plants out of 44
Difference in time taken for shoots to emerge (H. gordonii shoot tips; 40 minutes versus 30 minutes bleach treatment, in favour of 30 minutes): about one
Contamination rate (H. gordonii shoot tips; sterilizing only with sodium hypochlorite (no mercuric chloride), field grown cultures): 80%

OC[C@H]1O[C@@](CO)(O[C@H]2O[C@H](CO)[C@@H](O)[C@H](O)[C@H]2O)[C@@H](O)[C@@H]1O [sucrose]
Effect on shoot development and multiplication (Hoodia shoots): no significant effect
